In patent US20240041042A1, “1-(PYRIDYL)-5-AZINYLPYRAZOLE DERIVATIVES, AND THEIR USE FOR CONTROL OF UNDESIRED PLANT GROWTH” (Bayer Aktiengesellschaft, priority 2020, published 2024):
Like-named read-outs stand apart in the source and are kept apart here.

Legend:
Type in all cases: in vivo
[1] = test system: Avena fatua (AVEFA); test: Pre-emergence herbicidal action against AVEFA; settings: 320 g/ha, visual scoring after about 3 weeks vs untreated controls
Outline: (§1)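 Herbicide applied to soil before seedling emergence, at 600 l/ha spray volume with 0.5% additive and rates up to 320 g/ha. Evaluation: visual percentage effect, about 3 weeks later, greenhouse-grown pots compared with untreated ones.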

[2] = test system: Pharbitis purpurea (PHBPU); test: Pre-emergence herbicidal action against PHBPU
Outline: as §1

[3] = test system: Polygonum convolvulus (POLCO); test: Pre-emergence herbicidal action against POLCO; settings: dosage 320 g/ha
Outline: as §1

[4] = test system: Viola tricolor (VIOTR); test: Pre-emergence herbicidal action against VIOTR
Outline: as §1

[5] = test system: Matricaria inodora (MATIN); test: Pre-emergence herbicidal action against MATIN; settings: dosage 320 g/ha
Outline: as §1

[6] = test system: Setaria viridis (SETVI); test: Pre-emergence herbicidal action against SETVI
Outline: as §1

[7] = test system: Oryza sativa (ORYSA); settings: pre-emergence, 80 g/ha, crop plant compatibility, in comparison to untreated controls
Outline: (§2)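 Scoring: visual, % of untreated control, about 3 weeks after a pre-emergence application to the soil surface. Application used WP or EC formulations diluted in water with 0.5% additive at 600 l/ha; dosage levels are marked by suffixes a, b and c.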

[8] = test system: Zea mays (ZEAMX); settings: pre-emergence, 80 g/ha, crop plant compatibility, in comparison to untreated controls
Outline: as §2

[9] = test system: Verconica persica (VERPE); test: Post-emergence herbicidal action against VERPE
Outline: (§3)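 Values are percent visual activity (0% like control, 100% plants dead) after about 3 weeks in the greenhouse. Treatment: post-emergence spray at one-leaf stage, 600 l/ha spray volume, 0.5% additive, doses 320 g/ha or lower.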

[10] = test system: Digitaria sanguinalis (DIGSA); test: Pre-emergence herbicidal action against DIGSA
Outline: as §1

[11] = test system: Alopecurus myosuroides (ALOMY); test: Pre-emergence herbicidal action against ALOMY; settings: scored visually after about 3 weeks, 100% = plants have died
Outline: as §1

[12] = test system: Polygonum convolvulus (POLCO); test: Post-emergence herbicidal action against POLCO; settings: dosage 80 g/ha
Outline: as §3

[13] = test system: Verconica persica (VERPE); test: Pre-emergence herbicidal action against VERPE; settings: dosage 320 g/ha
Outline: as §1

[14] = test system: Amaranthus retroflexus (AMARE); test: Post-emergence herbicidal action against AMARE; settings: 80 g/ha, visual rating about 3 weeks after treatment vs untreated controls (100% = plants have died, 0% = like control plants)
Outline: as §3

[15] = test system: Echinochloa crus-galli (ECHCG); test: Pre-emergence herbicidal action against ECHCG; settings: dosage 320 g/ha
Outline: as §1

[16] = test system: Lolium rigidum (LOLRI); test: Pre-emergence herbicidal action against LOLRI
Outline: as §1

[17] = test system: Amaranthus retroflexus (AMARE); test: Pre-emergence herbicidal action against AMARE; settings: visual scoring after about 3 weeks vs untreated controls
Outline: as §1

[18] = test system: Oryza sativa (ORYSA); settings: crop plant compatibility
Outline: (§4)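 Foliar application at the one-leaf stage: WP/EC formulation, 0.5% additive, 600 l/ha water. Greenhouse-grown in sandy loam. Endpoint is visual % injury relative to untreated controls at about 3 weeks.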

[19] = test system: Zea mays (ZEAMX); settings: 20 g/ha, ZEAMX, effect in comparison to untreated controls
Outline: as §4

[20] = test system: Setaria viridis (SETVI); test: Post-emergence herbicidal action against SETVI
Outline: as §3

[21] = test system: Digitaria sanguinalis (DIGSA); test: Post-emergence herbicidal action against DIGSA; settings: visual rating about 3 weeks after treatment
Outline: as §3

[22] = test system: Abutilon theophrasti (ABUTH); test: Post-emergence herbicidal action against ABUTH; settings: visual rating about 3 weeks after treatment vs untreated controls (100% = plants have died, 0% = like control plants)
Outline: as §3

[23] = test system: Lolium rigidum (LOLRI); test: Post-emergence herbicidal action against LOLRI
Outline: as §3

[24] = test system: Avena fatua (AVEFA); test: Post-emergence herbicidal action against AVEFA; settings: visual rating about 3 weeks after treatment
Outline: as §3

[25] = test system: Echinochloa crus-galli (ECHCG); test: Post-emergence herbicidal action against ECHCG
Outline: as §3

[26] = test system: Alopecurus myosuroides (ALOMY); test: Post-emergence herbicidal action against ALOMY; settings: visual rating about 3 weeks after treatment vs untreated controls (100% = plants have died, 0% = like control plants)
Outline: as §3

[27] = test system: Pharbitis purpurea (PHBPU); test: Post-emergence herbicidal action against PHBPU
Outline: as §3

[28] = test system: Matricaria inodora (MATIN); test: Post-emergence herbicidal action against MATIN; settings: dosage 80 g/ha
Outline: as §3

[29] = test system: Viola tricolor (VIOTR); test: Post-emergence herbicidal action against VIOTR; settings: 80 g/ha
Outline: as §3

[30] = 80 g/ha, visual scoring after about 3 weeks vs untreated controls
[31] = 20 g/ha, effect vs untreated controls
[32] = 80 g/ha, effect in comparison to untreated controls

O=C(O)COc1nn(-c2ccccn2)c(-c2ccnc(F)c2)c1Br [Example I-122]
80%: Pre-emergence action against POLCO in % [3] | Pre-emergence action against MATIN in % [5] | Post-emergence action against VERPE in % ([9]; dosage 80 g/ha) | Pre-emergence action against ALOMY ([11]; 80 g/ha) | Pre-emergence action against AMARE in % ([17]; 80 g/ha)
90%: Pre-emergence action against AVEFA in % [1] | Pre-emergence action against PHBPU in % ([2]; dosage 320 g/ha) | Post-emergence action against POLCO in % [12] | Post-emergence action against AMARE in % [14]
0%: Pre-emergence action against ORYSA in % [7] | Pre-emergence action against ZEAMX in % [8] | Post-emergence action against ORYSA in % [18, 31] | Post-emergence action against ORYSA in % [18, 32] | Post-emergence action against ZEAMX in % (crop plant compatibility) [19]
100%: Pre-emergence action against VIOTR in % ([4]; 320 g/ha, Viola tricolor) | Pre-emergence action against VIOTR in % ([4]; dosage 80 g/ha) | Pre-emergence action against SETVI in % ([6]; dosage 80 g/ha) | Pre-emergence action against SETVI in % ([6]; dosage 320 g/ha) | Pre-emergence action against DIGSA in % [10, 30] | Pre-emergence action against DIGSA in % ([10]; dosage 320 g/ha) | Pre-emergence action against ALOMY ([11]; 320 g/ha) | Pre-emergence action against VERPE in % [13] | Pre-emergence action against ECHCG in % [15] | Pre-emergence action against LOLRI in % ([16]; dosage 320 g/ha) | Pre-emergence action against AMARE in % ([17]; 320 g/ha)

C#CCOC(=O)COc1nn(-c2ccccn2)c(-c2ccc(F)nc2)c1Br [Example I-360]
100%: Pre-emergence action against POLCO in % [3] | Pre-emergence action against VIOTR in % ([4]; 320 g/ha, Viola tricolor) | Pre-emergence action against SETVI in % ([6]; dosage 320 g/ha) | Pre-emergence action against DIGSA in % ([10]; dosage 320 g/ha) | Pre-emergence action against ALOMY ([11]; 80 g/ha) | Pre-emergence action against ALOMY ([11]; 320 g/ha) | Pre-emergence action against ECHCG in % [15] | Pre-emergence action against LOLRI in % ([16]; dosage 320 g/ha) | Pre-emergence action against AMARE in % ([17]; 320 g/ha)
90%: Pre-emergence action against AVEFA in % [1] | Pre-emergence action against PHBPU in % ([2]; dosage 320 g/ha) | Pre-emergence action against MATIN in % [5] | Pre-emergence action against SETVI in % ([6]; dosage 80 g/ha) | Post-emergence action against LOLRI in % ([23]; dosage 320 g/ha) | Pre-emergence action against DIGSA in % [10, 30] | Pre-emergence action against VERPE in % [13] | Post-emergence action against ALOMY in % ([26]; 80 g/ha) | Post-emergence action against ALOMY in % ([26]; 320 g/ha) | Pre-emergence action against AMARE in % ([17]; 80 g/ha)
80%: Post-emergence action against SETVI in % ([20]; dosage 80 g/ha) | Post-emergence action against SETVI in % ([20]; dosage 320 g/ha) | Pre-emergence action against PHBPU in % ([2]; dosage 80 g/ha) | Post-emergence action against DIGSA in % ([21]; 80 g/ha) | Post-emergence action against DIGSA in % ([21]; 320 g/ha) | Post-emergence action against VERPE in % ([9]; 320 g/ha, VERPE) | Post-emergence action against VERPE in % ([9]; dosage 80 g/ha) | Post-emergence action against ABUTH in % ([22]; 320 g/ha) | Post-emergence action against AVEFA in % ([24]; 320 g/ha) | Post-emergence action against ECHCG in % ([25]; dosage 80 g/ha) | Post-emergence action against ECHCG in % ([25]; dosage 320 g/ha) | Post-emergence action against PHBPU in % ([27]; dosage 80 g/ha) | Post-emergence action against PHBPU in % ([27]; dosage 320 g/ha)
10%: Pre-emergence action against ORYSA in % [7]
20%: Post-emergence action against ORYSA in % [18, 32]

COC(=O)CNC(=O)COc1nn(-c2ccccn2)c(-c2ccc(F)nc2)c1Br [Example I-97]
80%: Post-emergence action against SETVI in % ([20]; dosage 80 g/ha) | Pre-emergence action against AVEFA in % [1] | Pre-emergence action against MATIN in % [5] | Post-emergence action against DIGSA in % ([21]; 80 g/ha) | Pre-emergence action against SETVI in % ([6]; dosage 80 g/ha) | Post-emergence action against AVEFA in % ([24]; 80 g/ha) | Post-emergence action against ECHCG in % ([25]; dosage 80 g/ha) | Post-emergence action against MATIN in % [28] | Post-emergence action against VIOTR in % [29] | Pre-emergence action against LOLRI in % ([16]; dosage 80 g/ha) | Post-emergence action against PHBPU in % ([27]; dosage 80 g/ha)
10%: Pre-emergence action against ORYSA in % [7] | Post-emergence action against ORYSA in % [18, 32]
100%: Pre-emergence action against VIOTR in % ([4]; 320 g/ha, Viola tricolor) | Pre-emergence action against SETVI in % ([6]; dosage 320 g/ha) | Pre-emergence action against DIGSA in % [10, 30] | Pre-emergence action against DIGSA in % ([10]; dosage 320 g/ha) | Pre-emergence action against ALOMY ([11]; 320 g/ha) | Pre-emergence action against LOLRI in % ([16]; dosage 320 g/ha) | Pre-emergence action against AMARE in % ([17]; 320 g/ha)
90%: Pre-emergence action against PHBPU in % ([2]; dosage 320 g/ha) | Pre-emergence action against POLCO in % [3] | Post-emergence action against VERPE in % ([9]; dosage 80 g/ha) | Post-emergence action against ABUTH in % ([22]; 80 g/ha) | Pre-emergence action against ALOMY ([11]; 80 g/ha) | Pre-emergence action against VERPE in % [13] | Post-emergence action against AMARE in % [14] | Post-emergence action against ALOMY in % ([26]; 80 g/ha) | Pre-emergence action against AMARE in % ([17]; 80 g/ha)
0%: Post-emergence action against ORYSA in % [18, 31]

COC(=O)CNC(=O)COc1nn(-c2ccccn2)c(-c2ccc(F)nc2)c1Cl [Example I-64]
10%: Post-emergence action against ORYSA in % [18, 31]
20%: Pre-emergence action against ORYSA in % [7]
80%: Post-emergence action against LOLRI in % ([23]; dosage 80 g/ha) | Post-emergence action against AVEFA in % ([24]; 80 g/ha) | Post-emergence action against VIOTR in % [29] | Pre-emergence action against LOLRI in % ([16]; dosage 80 g/ha)
100%: Pre-emergence action against SETVI in % ([6]; dosage 320 g/ha) | Pre-emergence action against DIGSA in % [10, 30] | Pre-emergence action against DIGSA in % ([10]; dosage 320 g/ha) | Pre-emergence action against ALOMY ([11]; 320 g/ha) | Post-emergence action against ALOMY in % ([26]; 80 g/ha) | Pre-emergence action against ECHCG in % [15] | Pre-emergence action against LOLRI in % ([16]; dosage 320 g/ha) | Pre-emergence action against AMARE in % ([17]; 80 g/ha) | Pre-emergence action against AMARE in % ([17]; 320 g/ha)
90%: Post-emergence action against SETVI in % ([20]; dosage 80 g/ha) | Pre-emergence action against AVEFA in % [1] | Pre-emergence action against PHBPU in % ([2]; dosage 80 g/ha) | Pre-emergence action against PHBPU in % ([2]; dosage 320 g/ha) | Pre-emergence action against POLCO in % [3] | Pre-emergence action against VIOTR in % ([4]; 320 g/ha, Viola tricolor) | Pre-emergence action against MATIN in % [5] | Post-emergence action against DIGSA in % ([21]; 80 g/ha) | Pre-emergence action against SETVI in % ([6]; dosage 80 g/ha) | Post-emergence action against VERPE in % ([9]; dosage 80 g/ha) | Post-emergence action against ABUTH in % ([22]; 80 g/ha) | Post-emergence action against ECHCG in % ([25]; dosage 80 g/ha) | Pre-emergence action against ALOMY ([11]; 80 g/ha) | Pre-emergence action against VERPE in % [13] | Post-emergence action against MATIN in % [28] | Post-emergence action against AMARE in % [14] | Post-emergence action against PHBPU in % ([27]; dosage 80 g/ha)
